Consider 3 molecules from patent US12414958B2, “Medicament and use thereof for treating bacterial infections involving biofilm” (Debiopharm International S.A., priority 2019, dated 2025).

The subject of assay [1] is ATCC 43300 MRSA strain. Put plainly: Induction of resistance studies, ex vivo bacterial exposure to 4×MIC (Example 1). In kind it is cell-based, Staphylococcus aureus. The settings on record: ex vivo exposure to 4×MIC; single and combination therapy; 24h or 72h biofilm. Here is the method:
Two experimental settings were used in this study to evaluate the treatment efficacies against early (24h) and/or mature (72h) MRSA catheter formed biofilms. Briefly, mice were anaesthetised by an IP injection of about 120 μl a mix of ketamine (50 mg/kg) and xylazine (10 mg/kg) (4 mL ketamine+2 mL xylazine+10 mL saline). Flank on the right side was shaved and then disinfected by 3 consecutive applications of betadine. A cutaneous and then subcutaneous (SC) incisions of 0.2 cm were made under sterile conditions and a 1 cm segment of polyurethane catheter (Ref. No. ES-04730 Arrow international) cut into 2 longitudinal fragments was inserted SC (into the incision and then pushed further under the skin, about 2 cm away from the incision). The inoculation was done simultaneously by placing 50 μl of the bacterial culture onto the catheter (10^6 CFU of ATCC 43300 MRSA strain). The incision was stitched up and disinfected. The day of the infection was referred to as Day0 (D0). To ensure that the study was conducted in sterile conditions from the start to the end of the experiment, non-infected mice (sentinel group) were included. […] In both 24 h and 72h biofilm settings, two groups of infected non-treated animals (Vehicle controls) were evaluated for bacterial counts: at baseline (24h or D1 [for 24-h biofilm] and 72h or D3 [for 72-h biofilm] post infection, i.e. time points corresponding to treatments initiations) and at the termination of treatment duration (D6 [for 24-h biofilm] and D8 [for 72-h biofilm] post infection). Post treatment CFUs were counted on D6 or D8 and results were expressed as Log10 CFU/g of catheter (Mean±SEM). The limit of detection was determined as being 1 Log10 CFU/g of catheter. Changes of CFU/g of catheter (Δ Log10) from the baseline (D1 or D3 for 24-h and 72-h biofilm, respectively) and cure rates (corresponding to the percentage of mice without catheter-associated bacteria within a given treatment group) were also calculated. In vivo induction of antibiotic-resistant bacteria was analysed for all tested antibiotics.

In assay [2] the test system is S. aureus ATCC 43300 (MRSA). Put plainly: Mouse tissue cage model of MRSA infection, 11-day treatment at lower dosage (Example 3). In kind it is in vivo, Staphylococcus aureus. The settings on record: for Cure rate (%) / adherent bacteria reduction from baseline (mean±SD): 24-h biofilm; for Cure rate (%) / adherent bacteria reduction from baseline (mean±SD) / day on which bactericidal effect (mean reduction of bacterial load by ≥3 Log10) on planktonic bacteria was exerted / Planktonic day 3 Δlog from baseline (individual animal) / Planktonic day 6 Δlog from baseline (individual animal) / Planktonic day 9 Δlog from baseline (individual animal) / Planktonic day 11 Δlog from baseline (individual animal): 11-day treatment; for Cure rate (%): cages without growth / total cages; for adherent bacteria reduction from baseline (mean±SD): n=6, given as positive reduction; for Adherent Mean / Adherent Δlog from baseline (individual animal): medium after sonication of explanted tissue cages, day 14 vs day 1; for Adherent Mean: group mean; for day on which bactericidal effect (mean reduction of bacterial load by ≥3 Log10) on planktonic bacteria was exerted: planktonic bacteria in tissue cage fluid; for Planktonic day 3 Δlog from baseline (individual animal) / Planktonic day 6 Δlog from baseline (individual animal) / Planktonic day 9 Δlog from baseline (individual animal) / Planktonic day 11 Δlog from baseline (individual animal) / Planktonic day 14 Δlog from baseline (individual animal) / Planktonic day 3 Mean / Planktonic day 6 Mean / Planktonic day 9 Mean / Planktonic day 11 Mean / Planktonic day 14 Mean: tissue cage fluid; for Planktonic day 3 Δlog from baseline (individual animal) / Planktonic day 6 Δlog from baseline (individual animal) / Planktonic day 9 Δlog from baseline (individual animal) / Planktonic day 11 Δlog from baseline (individual animal): baseline day 1; for Planktonic day 14 Δlog from baseline (individual animal): 3 days after end of 11-day treatment; for Planktonic day 3 Mean / Planktonic day 6 Mean / Planktonic day 9 Mean / Planktonic day 11 Mean / Planktonic day 14 Mean: group mean Δlog from baseline. The source says:
The purpose of this study was to evaluate the efficacy of Debio 1450 BES alone and in combination with Daptomycin (DAP) in the mouse tissue cage model of implant-associated infections caused by methicillin resistant Staphylococcus (S.) aureus (MRSA) at lower dosage and longer treatment duration than used in the previous study (Example 2). The efficacy against 24-h biofilm of S. aureus ATCC 43300 (MRSA) was investigated. Employing a small initial inoculum (ca. 300 CFU/cage) together with a 24-h biofilm allowed to simulate clinical settings of an acute implant infection and/or surgical debridement.
The Debio 1450 BES dose of 20 mg/kg BID reflects the most current HED of 240 mg BID obtained in the recent PK studies (50 mg/kg BID was used in Example 2 based on the previous PK analysis). […] The treatment duration of 11 days was selected to compensate lowering of the dose of Debio 1450 BES (5.5-day treatment was used in Example 2) and is in line with the prolonged antibiotic therapy applied in patients with prosthetic joint infections.
The same mouse tissue cage model was employed as described in Example 2 above. The animals received antibiotic treatment i.p. on day 1 post-infection through day 11. One group received only 5% glucose and served as infected, untreated control group (vehicle). […] Debio 1450 BES and vehicle were administered bid, and DAP was administered qdam. In the present study we investigated the efficacy of lower dosage in a prolonged treatment duration.
Five to 6 days before infection, TCF was aspirated to ascertain the sterility of implanted cages by TCF plating on blood agar plates. TCF was aspirated and plated on day 1 (before treatment) to confirm the establishment of infection. In addition, the number of bacteria in TCF was determined on day 3 (before the first injection that day), on day 6, day 9 and on day 11 (before last treatment), and on day 14 (before explantation of the cages) to evaluate the treatment efficacy against planktonic bacteria. The mouse number and bacterial count for the given cage is reported to analyse the time course of antibacterial activity of the tested drugs. The efficacy against biofilm-embedded bacteria is assessed qualitatively and quantitatively following aseptic explantation of the tissue cages 3 days after the completion of treatment. The 3 days of resting period helped to avoid the antibiotic carryover effect. Upon explantation, cages were washed twice with phosphate buffered saline (PBS) (Lot #5060914) and immediately transferred into 5 mL 0.9% NaCl (Lot #L171095). Following 30 s vortexing, sonication (3 min at 130 W), and an additional 30 s vortexing step the numbers of bacteria dispersed from biofilm was determined by plating. The sonicated cages were washed once with PBS, transferred into 5 mL TSB (Lot #0286463), and incubated for 48 h at 37° C., with an additional vortexing step after 24 h of incubation. After the incubation, tubes were vortexed again and bacterial regrowth was assessed visually. In addition, 100 μL of each culture was plated on blood agar plates to ascertain the regrowth. A positive culture is defined as a treatment failure. The efficacy of treatment against adherent bacteria is expressed as the cure rate (in percent), defined as the number of cages without growth divided by the total number of cages in the individual treatment group. In addition, single colonies from the re-growth plates were used to achieve the 0.5 McFarland. 100 μl of each 0.5 McFarland culture was plated on MHA plates containing the antibiotics corresponding to the treatment used (note: bacteria from mice treated with Debio 1450 will be plated on plates containing Debio 1452).

Assay [3] relates to MSSA ATCC 29213. As to the kind of experiment: Mouse tissue cage model of staphylococcal biofilm infection, MSSA (Example 4). The settings on record: 24-h biofilm MSSA ATCC 29213; 11-d treatment; cages explanted day 14. Format: in vivo, Staphylococcus aureus. Here is the method: After the incubation, tubes were vortexed again and bacterial regrowth was assessed visually. […] The efficacy of treatment against adherent bacteria is expressed as the cure rate (in percent), defined as the number of cages without growth divided by the total number of cages in the individual treatment group.

Where “and” joins values, the source holds several entries; their conditions need not be identical. Identical values can stand only once.

On to `CCCCCCCCCC(=O)N[C@@H](Cc1c[nH]c2ccccc12)C(=O)N[C@H](CC(N)=O)C(=O)N[C@@H](CC(=O)O)C(=O)N[C@@H]1C(=O)NCC(=O)N[C@@H](CCCN)C(=O)N[C@@H](CC(=O)O)C(=O)N[C@H](C)C(=O)N[C@@H](CC(=O)O)C(=O)NCC(=O)N[C@H](CO)C(=O)N[C@@H]([C@H](C)CC(=O)O)C(=O)N[C@@H](CC(=O)c2ccccc2N)C(=O)O[C@@H]1C` [Daptomycin], for which the “emergence of resistant mutants” value in assay [1] is listed as “no emergence of resistant mutants”. In assay [2], the “Cure rate (%)” value came out at 50%, the “adherent bacteria reduction from baseline (mean±SD)” value came to 3.15±2.74 log 10 CFU/mL, the “Adherent Mean” value is reported as −3 log 10 CFU/mL and the “day on which bactericidal effect (mean reduction of bacterial load by ≥3 Log10) on planktonic bacteria was exerted” value is recorded as 6 day. Further, in assay [2], the “Planktonic day 3 Mean” value was −3 Log10, the “Planktonic day 6 Mean” value is given as −3.33 Log10, the “Planktonic day 9 Mean” value was −3.9 Log10 and the “Planktonic day 11 Mean” value is reported as −3.73 Log10. Also, in assay [2], the “Planktonic day 14 Mean” value was −2 Log10. Moreover, in assay [2] (listed as DAP), the “Adherent Δlog from baseline (individual animal)” value is −4.2 log 10 CFU/mL and −0.3 log 10 CFU/mL and 0.24 log 10 CFU/mL and −6 log 10 CFU/mL (2×) and −2.5 log 10 CFU/mL; the “Planktonic day 3 Δlog from baseline (individual animal)” value is −2.56 Log10 and −2.18 Log10 and −3.12 Log10 and −2.06 Log10 and −3.41 Log10 and −3.62 Log10; the “Planktonic day 6 Δlog from baseline (individual animal)” value is −2.7 Log10 and −3.5 Log10 (2×) and −3.4 Log10 (2×) and −3.6 Log10; the “Planktonic day 9 Δlog from baseline (individual animal)” value is −4.6 Log10 and −5.5 Log10 and −2.7 Log10 and −3.4 Log10 and −3.6 Log10 (2×). Also, in assay [2] (listed as DAP), the “Planktonic day 11 Δlog from baseline (individual animal)” value is −4.6 Log10 and −2.9 Log10 and −2.70 Log10 and −3.4 Log10 and −5.2 Log10 and −3.6 Log10; the “Planktonic day 14 Δlog from baseline (individual animal)” value is −4.6 Log10 and −1.1 Log10 and −1.5 Log10 and −3.4 Log10 and −0.6 Log10 and −3.6 Log10.
On to `Cc1c(CN(C)C(=O)/C=C/c2cnc3c(c2)CCC(=O)N3COP(=O)(O)O)oc2ccccc12` [Debio 1450, {6-[(1E)-3-{methyl [(3-methyl-1-benzofuran-2-yl)methyl]amino}-3-oxoprop-1-en-1-yl]-2-oxo-3,4-dihydro-1,8-naphthyridin-1 (2H)-yl} methyl dihydrogen phosphate], for which, in assay [2], the “Cure rate (%)” value turned out to be 83%; the “adherent bacteria reduction from baseline (mean±SD)” value came to 4.35±2.5 log 10 CFU/mL; the “Adherent Δlog from baseline (individual animal)” value was −4.2 log 10 CFU/mL (2×) and 0.43 log 10 CFU/mL and −6 log 10 CFU/mL (3×); the “Adherent Mean” value is −4 log 10 CFU/mL. Moreover, in assay [2], the “day on which bactericidal effect (mean reduction of bacterial load by ≥3 Log10) on planktonic bacteria was exerted” value amounted to 6 day; the “Planktonic day 3 Δlog from baseline (individual animal)” value was −1.46 Log10 and −3.68 Log10 and −2.22 Log10 and −3.33 Log10 and −3.03 Log10 and −2.37 Log10; the “Planktonic day 6 Δlog from baseline (individual animal)” value was −3.1 Log10 and −3.7 Log10 (2×) and −4.2 Log10 and −3.3 Log10 and −3 Log10; the “Planktonic day 9 Δlog from baseline (individual animal)” value is −3.1 Log10 and −3.7 Log10 and −6.2 Log10 and −3.3 Log10 and −3 Log10 and −5.3 Log10. In assay [2], the “Planktonic day 11 Δlog from baseline (individual animal)” value is −3.1 Log10 and −3.7 Log10 and −6.2 Log10 and −3.3 Log10 and −3 Log10 and −5.3 Log10; the “Planktonic day 14 Δlog from baseline (individual animal)” value is −3.1 Log10 and −3.7 Log10 and −0.2 Log10 and −3.3 Log10 and −3 Log10 and −5.3 Log10; the “Planktonic day 3 Mean” value was −3 Log10; the “Planktonic day 6 Mean” value was −3.50 Log10. In addition, in assay [2], the “Planktonic day 9 Mean” value was −4.10 Log10, the “Planktonic day 11 Mean” value is listed as −4.10 Log10 and the “Planktonic day 14 Mean” value was −3 Log10. In assay [3], the “Cure rate (%)” value is 14.3%.
In the case of `CO[C@H]1/C=C/O[C@@]2(C)Oc3c(C)c(O)c4c(O)c(c(/C=N/N5CCN(C)CC5)c(O)c4c3C2=O)NC(=O)/C(C)=C\C=C\[C@H](C)[C@H](O)[C@@H](C)[C@@H](O)[C@@H](C)[C@H](OC(C)=O)[C@@H]1C` [Rifampicin], in assay [3], the “Cure rate (%)” value came to 100%.
